The numbers were not newly measured in patent US20090238905A1, “INFLAMMATION REDUCING ACTION OF SYNERGISTIC MIXTURES OF BISABOLOL AND GINGER EXTRACTS” (SYMRISE, Inc., priority 2008, published 2009), which cites them from elsewhere.

`CC(C)=CCC[C@](C)(O)C1CC=C(C)CC1` (stereo partly shown) [Bisabolol, bisabolol]: the PGE2 inhibition entry in the data set with PGE2 is recorded as “not as a PGE2 inhibitor”. Further, the IL-1α inhibition entry in the data set with IL-1α is “very effective”. The LTB4 inhibition entry with LTB4 was “very effective”.
Consider `CCCCC[C@H](O)CC(=O)CCc1ccc(O)c(OC)c1` [Gingerol], for which the “inhibition of COX-2 expression” value with COX-2 is given as “inhibit”. Moreover, the “inhibition of PGE2 production” value in the data set on HL-60 cells was “inhibit PGE2 production”. Moreover, the IL-1α inhibition entry in the data set on IL-1α was “did not have an effect”. The “inhibition of activation of TNF-α” value in the data set with TNF-α is listed as “inhibit activation of TNF-α”.
